From patent US9859508B2, “Condensed polycyclic aromatic compound and use thereof” (Nippon Kayaku Kabushiki Kaisha, priority 2013, dated 2018)

Assays:
[1] = Cyclic voltammetry (CV) in dichloromethane; type: physicochemical; details: n-BuN4PF6 0.1 M, silver/silver chloride reference electrode, 100 mV/sec
Procedure: (3) Measurement of CV (Cyclic Voltammetry)
CV was measured using dichloromethane as a solvent, tetrabutylammonium hexafluorophosphate (n-BuN4PF6, 0.1 M) as a supporting salt, platinum wires as a working electrode and a counter electrode, and a silver/sliver chloride electrode as a reference electrode, and sweeping the electric potential at a rate of 100 mV/sec.

[2] = Solubility to chloroform (saturated chloroform solutions); type: physicochemical; details: mass percent concentration of saturated chloroform solution
Procedure: (1) Measurement of Solubility
Solubility was measured using chloroform as a solvent.

CCCCCCCCc1cc2c(cc(CCCCCCCC)c3cc(=C(C#N)C#N)sc32)c2sc(=C(C#N)C#N)cc12 [Compound 110]
first half-wave reduction potential [1]: 0.15 V
second half-wave reduction potential [1]: −0.14 V

CCCCCCCCCCCCc1cc2c(cc(CCCCCCCCCCCC)c3cc(=C(C#N)C#N)sc32)c2sc(=C(C#N)C#N)cc12 [Compound 112]
Solubility to Chloroform [2]: 0.20 w/w %
first half-wave reduction potential [1]: 0.15 V
second half-wave reduction potential [1]: −0.14 V

CCCCCCCCCCCCCCCCc1cc2c(cc(CCCCCCCCCCCCCCCC)c3cc(=C(C#N)C#N)sc32)c2sc(=C(C#N)C#N)cc12 [Compound 114]
first half-wave reduction potential [1]: 0.15 V
second half-wave reduction potential [1]: −0.14 V

CCCCC(CC)Cc1cc2c(cc(CC(CC)CCCC)c3cc(=C(C#N)C#N)sc32)c2sc(=C(C#N)C#N)cc12 (stereo not shown) [Compound 119]
Solubility to Chloroform [2]: 0.53 w/w %
first half-wave reduction potential [1]: 0.15 V
second half-wave reduction potential [1]: −0.14 V
